{"source": "patent US7217776B1", "about": "“pH-sensitive methacrylic copolymer gels and the production thereof” (Iowa State University Research Foundation, priority 2003, dated 2007)", "tested_on": "NIH/3T3 mouse fibroblasts", "experiment": "Cytotoxicity elution test", "type": "cell-based", "conditions": "24 hours incubation; 3 mg/L, 0.3 mg/L and 0.03 mg/L", "protocol": "Elution tests were performed on one sample of the pentablock material to assess the cytotoxic properties of the pentablock copolymers. Approximately 30 mg of the polymers to be tested were dissolved in 100 ml of low-glucose Dulbecco's modified eagle medium (DMEM, Sigma) with 10% fetal bovine serum (FBS, Sigma), 10 μg/ml insulin (Sigma), 10 units/ml penicillin/streptomycin (Sigma), and 100 μg/ml L-ascorbic acid (Sigma). This solution was diluted to achieve the desired polymer concentration for all tests.\nNIH/3T3 mouse fibroblasts were grown in polystyrene flasks until reaching confluence at 150 cells/mm. The growth media was removed from the flasks and replaced with one of the following: DMEM (negative control), DMEM with phenol (positive control), DMEM with the pentablock material. The concentrations of the pentablock material and phenol were 3 mg/L, 0.3 mg/L and 0.03 mg/L.\nAfter 24 hours of incubation in a humidified incubator with 5% CO2 at 37° C. the samples were removed and the media was replaced with Kamovsky's fixative (2.5% glutaraldehyde, 2.0% paraformaldehyde, 0.1M sodium cacodylate) for 12 hours. The samples were then stained with a 20% crystal violet dye (CVD) solution in ethanol for 6 hours followed by dehydration with ethanol. […]", "data": [{"compound": "Oc1ccccc1", "note": "[phenol]", "values": [{"measurement": "cytotoxic response (cell density, morphology, adherence relative to controls)", "value": "result expected for a cytotoxic material"}]}]}
